Measurements taken from the supplement of paper PMC13380429.

Key:
[1] = system: A549-ACE2 infected with SARS-CoV-2; assay: SARS-CoV-2 infection rate relative to DMSO; higher = more infection; conditions: 24 h
Calu-3 [2] = assay: drug sensitivity score (DSS) for viability; higher = more toxic; extreme values may be limits of the assay; conditions: 72 h
HepG2 [3] = assay: as above; conditions: 72 h
U2OS [4] = assay: as above; conditions: 72 h
Caco-2 [5] = assay: as above; conditions: 72 h
Vero E6 [6] = assay: as above; conditions: 72 h
[7] = system: A549-ACE2 infected with SARS-CoV-2; assay: cell count relative to DMSO; higher = less toxic; conditions: 24 h
[8] = system: A549-ACE2 infected with SARS-CoV-2; assay: morphology score (similarity to uninfected cells); higher = more like uninfected cells; conditions: 24 h
A549-ACE2 [9] = assay: drug-induced phospholipidosis relative to tamoxifen; higher = more phospholipidosis
A549-ACE2 [10] = assay: phospholipidosis EC50; higher = less potent phospholipidosis inducer
Calu-3 [11] = assay: relative viability EC50 (midpoint between 100% and the lowest measured viability); higher = less toxic; conditions: 72 h
HepG2 [12] = assay: as above; conditions: 72 h
Vero E6 [13] = assay: as above; conditions: 72 h
Calu-3 [14] = assay: cell viability relative to DMSO; higher = less toxic; conditions: 72 h
HepG2 [15] = assay: as above; conditions: 72 h
U2OS [16] = assay: as above; conditions: 72 h
Caco-2 [17] = assay: as above; conditions: 72 h
Vero E6 [18] = assay: as above; conditions: 72 h

Q: How did the SARS-CoV-2 infection rate ([1]; 0.3 µM) turn out when `O=C(Nc1ncc(SCCN2CCCC2)s1)[C@]1(c2ccc(S(=O)(=O)C3CC3)cc2)C[C@H]1C1CCCCC1` was run?
A: 94%

Q: And the SARS-CoV-2 infection rate ([1]; 3 µM)?
A: 27%

Q: And the SARS-CoV-2 infection rate ([1]; 10 µM)?
A: 8%

Q: And the SARS-CoV-2 infection rate ([1]; 30 µM)?
A: 44%

Q: What about the drug sensitivity score (Calu-3 [2]) of the same compound?
A: 4.6

Q: What about the drug sensitivity score (HepG2 [3]) of the same compound?
A: 4.6

Q: What about the drug sensitivity score (U2OS [4]) of the same compound?
A: 0.8

Q: What about the drug sensitivity score (Caco-2 [5]) of the same compound?
A: 1.3

Q: What about the drug sensitivity score (Vero E6 [6]) of the same compound?
A: 0

Q: What about the cell count ([7]; 0.3 µM) of the same compound?
A: 101%

Q: What about the cell count ([7]; 3 µM) of the same compound?
A: 115%

Q: What about the cell count ([7]; 10 µM) of the same compound?
A: 118%

Q: And the cell count ([7]; 30 µM)?
A: 56%

Q: What about the morphology score ([8]; 0.3 µM) of the same compound?
A: 0.2

Q: And the morphology score ([8]; 3 µM)?
A: 0.84

Q: What about the morphology score ([8]; 10 µM) of the same compound?
A: 0.6

Q: And the morphology score ([8]; 30 µM)?
A: -0.07

Q: What about the drug-induced phospholipidosis (A549-ACE2 [9]; 0.3 µM, 24 h) of the same compound?
A: 14.6%

Q: And the drug-induced phospholipidosis (A549-ACE2 [9]; 0.3 µM, 48 h)?
A: 10.1%

Q: And the drug-induced phospholipidosis (A549-ACE2 [9]; 0.3 µM, 72 h)?
A: 11.7%

Q: What about the drug-induced phospholipidosis (A549-ACE2 [9]; 0.833333 µM, 24 h) of the same compound?
A: 32.7%

Q: And the drug-induced phospholipidosis (A549-ACE2 [9]; 0.833333 µM, 48 h)?
A: 21.2%

Q: What about the drug-induced phospholipidosis (A549-ACE2 [9]; 0.833333 µM, 72 h) of the same compound?
A: 19.3%

Q: What about the drug-induced phospholipidosis (A549-ACE2 [9]; 3.33333 µM, 24 h) of the same compound?
A: 73.1%

Q: And the drug-induced phospholipidosis (A549-ACE2 [9]; 3.33333 µM, 48 h)?
A: 80.9%

Q: And the drug-induced phospholipidosis (A549-ACE2 [9]; 3.33333 µM, 72 h)?
A: 75.5%

Q: What about the drug-induced phospholipidosis (A549-ACE2 [9]; 6.66667 µM, 24 h) of the same compound?
A: 104%

Q: What about the drug-induced phospholipidosis (A549-ACE2 [9]; 6.66667 µM, 48 h) of the same compound?
A: 105%

Q: And the drug-induced phospholipidosis (A549-ACE2 [9]; 6.66667 µM, 72 h)?
A: 114%

Q: And the drug-induced phospholipidosis (A549-ACE2 [9]; 10 µM, 24 h)?
A: 117%

Q: What about the drug-induced phospholipidosis (A549-ACE2 [9]; 10 µM, 48 h) of the same compound?
A: 132%

Q: And the drug-induced phospholipidosis (A549-ACE2 [9]; 10 µM, 72 h)?
A: 138%

Q: And the drug-induced phospholipidosis (A549-ACE2 [9]; 30 µM, 24 h)?
A: 197%

Q: What about the “phospholipidosis EC50” value (A549-ACE2 [10]; 24 h) of the same compound?
A: 6.5 µM

Q: And the “phospholipidosis EC50” value (A549-ACE2 [10]; 48 h)?
A: 5.12 µM

Q: What about the “phospholipidosis EC50” value (A549-ACE2 [10]; 72 h) of the same compound?
A: 5.4 µM

Q: And the “relative viability EC50” value (Calu-3 [11])?
A: 3.34 µM

Q: And the “relative viability EC50” value (HepG2 [12])?
A: 1.84 µM

Q: What about the “relative viability EC50” value (Vero E6 [13]) of the same compound?
A: > 10 µM

Q: What about the cell viability (Calu-3 [14]; 1 nM) of the same compound?
A: 110%

Q: What about the cell viability (Calu-3 [14]; 10 nM) of the same compound?
A: 93.8%

Q: And the cell viability (Calu-3 [14]; 100 nM)?
A: 96.4%

Q: And the cell viability (Calu-3 [14]; 1000 nM)?
A: 103%

Q: And the cell viability (Calu-3 [14]; 10000 nM)?
A: 14%

Q: What about the cell viability (HepG2 [15]; 1 nM) of the same compound?
A: 104%

Q: And the cell viability (HepG2 [15]; 10 nM)?
A: 99.2%

Q: And the cell viability (HepG2 [15]; 100 nM)?
A: 98.6%

Q: What about the cell viability (HepG2 [15]; 1000 nM) of the same compound?
A: 90.2%

Q: What about the cell viability (HepG2 [15]; 10000 nM) of the same compound?
A: 44.8%

Q: What about the cell viability (U2OS [16]; 1 nM) of the same compound?
A: 99.4%

Q: And the cell viability (U2OS [16]; 10 nM)?
A: 105%

Q: And the cell viability (U2OS [16]; 100 nM)?
A: 104%

Q: And the cell viability (U2OS [16]; 1000 nM)?
A: 102%

Q: And the cell viability (U2OS [16]; 10000 nM)?
A: 74.9%

Q: What about the cell viability (Caco-2 [17]; 1 nM) of the same compound?
A: 101%

Q: What about the cell viability (Caco-2 [17]; 10 nM) of the same compound?
A: 98.9%

Q: And the cell viability (Caco-2 [17]; 100 nM)?
A: 98%

Q: And the cell viability (Caco-2 [17]; 1000 nM)?
A: 102%

Q: And the cell viability (Caco-2 [17]; 10000 nM)?
A: 69%

Q: What about the cell viability (Vero E6 [18]; 1 nM) of the same compound?
A: 96.3%

Q: What about the cell viability (Vero E6 [18]; 10 nM) of the same compound?
A: 94.6%

Q: And the cell viability (Vero E6 [18]; 100 nM)?
A: 97.2%

Q: And the cell viability (Vero E6 [18]; 1000 nM)?
A: 90.5%

Q: And the cell viability (Vero E6 [18]; 10000 nM)?
A: 95.4%
